The results in this text go back to patent US20170150719A1, “FUNGICIDAL PYRAZOLES AND THEIR MIXTURES” (E I DU PONT DE NEMOURS AND COMPANY, priority 2010, published 2017).

Molecules are shown by their SMILES.

Assay [1] relates to Puccinia recondita f. sp. tritici. The assay can be described thus: Test H: wheat leaf rust, preventive spray on wheat seedlings, visual disease rating. The following applies: 100 = 100% disease control; for pest or weed control at 200 µg/mL: read-out: Test H rating (disease control), wheat leaf rust, sprayed the day before inoculation, 0 = no disease control; for Test H rating (% disease control): wheat leaf rust, preventive spray, rating without asterisk.

Assay [2] shares this test system. As to the kind of experiment: Test G: wheat leaf rust, spray after inoculation (curative) on wheat seedlings, visual disease rating. The conditions noted are these: 100 = 100% disease control; for pest or weed control at 200 µg/mL: sprayed after inoculation, 0 = no disease control; for Test G rating (% disease control): spray after inoculation, rating without asterisk. In kind it is in vivo. The source says: (§1) A hyphen (-) indicates no test results.

Assay [3] has as its system Septoria tritici. The assay can be described thus: Test F: wheat leaf blotch, preventive spray on wheat seedlings, visual disease rating. In kind it is in vivo. The following applies: Zymoseptoria tritici, 100 = 100% disease control, 0 = no disease control relative to the controls.
Text: as §1

The test system of another assay is Botrytis cinerea. As to the kind of experiment: Test A: tomato Botrytis, preventive spray on tomato seedlings, visual disease rating. The conditions noted are these: 100 = 100% disease control; for pest or weed control at 200 µg/mL: Botrytis cinerea, in Solanum lycopersicum, read-out: Test A rating (disease control), tomato Botrytis, 0 = no disease control relative to the controls; for Test A rating (% disease control): tomato Botrytis, preventive spray, 0 = no control relative to controls, rating without asterisk.

Another assay deals with Alternaria solani. The assay can be described thus: Test B: tomato early blight, preventive spray on tomato seedlings, visual disease rating. The conditions noted are these: for pest or weed control at 200 µg/mL: Alternaria solani, in Solanum lycopersicum, read-out: Test B rating (disease control); for Test B rating (% disease control): tomato early blight, preventive spray, 100 = 100% disease control, rating without asterisk.

The test system of assay [4] is Blumeria graminis f. sp. tritici. The assay can be described thus: Test I: wheat powdery mildew, preventive spray on wheat seedlings, visual disease rating. The conditions noted are these: 100 = 100% disease control; for pest or weed control at 200 µg/mL: Blumeria graminis, in Triticum aestivum, read-out: Test I rating (disease control), wheat powdery mildew, 0 = no disease control relative to the controls; for Test I rating (% disease control): wheat powdery mildew, preventive spray, rating without asterisk.

In another assay the test system is Phytophthora infestans. As to the kind of experiment: whole plant or invertebrate. In kind it is in vivo. The conditions noted are these: for pest or weed control at 200 µg/mL: Phytophthora infestans, in Solanum lycopersicum, read-out: Test C rating (disease control); for Test C rating (% disease control): tomato late blight, preventive spray, 100 = 100% disease control, rating without asterisk.

The subject of a further assay is Septoria nodorum. As to the kind of experiment: Test E: Septoria glume blotch, preventive spray on wheat seedlings, visual disease rating. The following applies: 100 = 100% disease control; for pest or weed control at 200 µg/mL: Parastagonospora nodorum, in Triticum aestivum, read-out: Test E rating (disease control), Septoria glume blotch, 0 = no disease control relative to the controls; for Test E rating (% disease control): Septoria glume blotch on wheat, preventive spray, rating without asterisk.

The subject of assay [5] is Puccinia recondita f sp. tritici. The assay can be described thus: Test L (L1-L5): wheat leaf rust, Compound 81 alone and in mixtures, observed and Colby expected control. The following applies: for Test L5 Obsd, disease control rating: wheat leaf rust. In kind it is in vivo.
Assay [6] has as its system Septoria tritici. As to the kind of experiment: Test M (M1-M5): wheat leaf blotch, Compound 81 alone and in mixtures, observed and Colby expected control. In kind it is in vivo.
Assay [7] has as its system Blumeria graminis f. sp. tritici. As to the kind of experiment: Test K (K1-K5): wheat powdery mildew, Compound 81 alone and in mixtures, observed and Colby expected control. In kind it is in vivo. The conditions noted are these: for Test K5 Obsd, disease control rating: wheat powdery mildew.

For the molecule `Cc1nn(C)c(Nc2ccc(F)cc2Cl)c1-c1ccc(F)cc1Cl` [Compound 47, N,4-bis(2-chloro-4-fluorophenyl)-1,3-dimethyl-1H-pyrazol-5-amine], the pest or weed control at 200 µg/mL was 99% in assay [1]; 93% in assay [2]; 96% with Septoria tritici [3]; 100% in the assay with Botrytis cinerea; 99% with Alternaria solani; 100% in assay [4]. Also, the pest or weed control at 200 µg/mL with Phytophthora infestans is 0%; with Septoria nodorum, 82%.

`Cc1nn(C)c(Nc2c(F)cc(F)cc2Cl)c1-c1ccc(F)cc1Cl` [Compound 82, N-(2-chloro-4,6-difluorophenyl)-4-(2-chloro-4-fluorophenyl)-1,3-dimethyl-1H-pyrazol-5-amine]: the pest or weed control at 200 µg/mL is 100% in assay [1]; 97% in [2]; 100% in the assay with Septoria tritici [3]; 99% with Botrytis cinerea; 100% with Alternaria solani; 100% in assay [4]. In addition, the pest or weed control at 200 µg/mL was 0% in the assay with Phytophthora infestans and 100% in the assay on Septoria nodorum.

With `Cc1nn(C)c(Nc2c(F)cc(F)cc2Br)c1-c1c(F)cccc1F` [Compound 146, N-(2-bromo-4,6-difluorophenyl)-4-(2,6-difluorophenyl)-1,3-dimethyl-1H-pyrazol-5-amine], the pest or weed control at 200 µg/mL in assay [1] came to 98%; in [2], 74%; in the assay with Septoria tritici [3] it was 100%; in the assay on Alternaria solani it was 100%; in assay [4], 100%; in the assay on Phytophthora infestans, 0%. Besides, the pest or weed control at 200 µg/mL in the assay on Septoria nodorum came to 100%.

As for `Cc1nn(C)c(Nc2c(F)cc(F)cc2Br)c1-c1ccc(F)cc1Br` [Compound 195, N-(2-bromo-4,6-difluorophenyl)-4-(2-bromo-4-fluorophenyl)-1,3-dimethyl-1H-pyrazol-5-amine], the “Test G rating (% disease control)” value in assay [2] turned out to be 89%. In the assay on Alternaria solani, the “Test B rating (% disease control)” value is on record as 100%. The “Test C rating (% disease control)” value in the assay on Phytophthora infestans was 0%. In addition, the “Test E rating (% disease control)” value with Septoria nodorum is given as 99%.

On to `Cc1nn(C)c(Nc2c(F)cccc2Cl)c1-c1ccc(F)cc1F` [Compound 275, N-(2-chloro-6-fluorophenyl)-4-(2,4-difluorophenyl)-1,3-dimethyl-1H-pyrazol-5-amine], for which, in assay [2], the “Test G rating (% disease control)” value is listed as 9%. The “Test B rating (% disease control)” value in the assay on Alternaria solani was found to be 99%. For the same molecule, the “Test C rating (% disease control)” value in the assay with Phytophthora infestans is 0%. The “Test E rating (% disease control)” value in the assay with Septoria nodorum is 60%.

In the case of `CCOc1ccc(-c2c(C)nn(C)c2Nc2c(F)cc(F)cc2Cl)c(F)c1` [compound 188], the “Test H rating (% disease control)” value in [1] is 98%. The “Test G rating (% disease control)” value in assay [2] was 0%. Further, the “Test A rating (% disease control)” value in the assay on Botrytis cinerea is listed as 100%. In the assay with Alternaria solani, the “Test B rating (% disease control)” value was 99%. In assay [4], the “Test I rating (% disease control)” value is reported as 98%. The “Test C rating (% disease control)” value in the assay on Phytophthora infestans is on record as 0%. Further, the “Test E rating (% disease control)” value with Septoria nodorum is 92%.

With `CCOc1ccc(-c2c(C)nn(C)c2Nc2c(F)cc(Cl)cc2F)c(F)c1` [compound 189], the “Test H rating (% disease control)” value in [1] amounted to 98%. Moreover, in assay [2], the “Test G rating (% disease control)” value stood at 0%. In addition, the “Test A rating (% disease control)” value in the assay with Botrytis cinerea turned out to be 100%. Moreover, the “Test B rating (% disease control)” value in the assay with Alternaria solani came to 88%. Moreover, in assay [4], the “Test I rating (% disease control)” value stood at 98%. For the same molecule, the “Test C rating (% disease control)” value in the assay on Phytophthora infestans worked out at 0%. Also, the “Test E rating (% disease control)” value in the assay with Septoria nodorum stood at 90%.

On to `CCOc1ccc(-c2c(C)nn(C)c2Nc2c(F)cc(Cl)cc2Cl)c(F)c1` [compound 190], for which the “Test H rating (% disease control)” value in assay [1] stood at 96%. In assay [2], the “Test G rating (% disease control)” value came to 9%. For the same molecule, in the assay with Botrytis cinerea, the “Test A rating (% disease control)” value was determined as 100%. Moreover, the “Test B rating (% disease control)” value in the assay on Alternaria solani is 82%. In addition, the “Test I rating (% disease control)” value in assay [4] was determined as 95%. Besides, the “Test C rating (% disease control)” value with Phytophthora infestans stood at 0%. The “Test E rating (% disease control)” value in the assay with Septoria nodorum amounted to 0%.

Regarding `COc1ccc(-c2c(C)nn(C)c2Nc2c(F)cc(Cl)cc2Cl)c(F)c1` [compound 191], in [1], the “Test H rating (% disease control)” value came out at 99%. The “Test G rating (% disease control)” value in assay [2] is 46%. For the same molecule, the “Test A rating (% disease control)” value with Botrytis cinerea came to 100%. Moreover, in the assay on Alternaria solani, the “Test B rating (% disease control)” value is listed as 99%. Further, in [4], the “Test I rating (% disease control)” value is reported as 99%. In addition, the “Test C rating (% disease control)” value with Phytophthora infestans is reported as 0%. The “Test E rating (% disease control)” value in the assay on Septoria nodorum stood at 92%.

As to `CC(C1CC1)C(O)(Cn1cncn1)c1ccc(Cl)cc1` (stereo not shown) [cyproconazole], the “Test L5 Obsd, disease control rating” value in [5] (component (b) 0.016 ppm alone) is recorded as 27%; in assay [5] (component (b) 0.08 ppm alone), 80%; in assay [5] (component (b) 0.4 ppm alone) it was 92%; in [5] (component (b) 2 ppm alone), 100%. Further, the “Test M2 Obsd, disease control rating” value turned out to be 0% with Septoria tritici [6] (component (b) 0.4 ppm alone), 0% in the assay with Septoria tritici [6] (component (b) 2 ppm alone), 0% with Septoria tritici [6] (component (b) 10 ppm alone) and 98% in the assay on Septoria tritici [6] (component (b) 40 ppm alone). The “Test K5 Obsd, disease control rating” value in [7] (component (b) 0.016 ppm alone) is reported as 64%; in assay [7] (component (b) 0.08 ppm alone), 64%; in [7] (component (b) 0.4 ppm alone), 79%; in [7] (component (b) 2 ppm alone), 96%.

`CC(C)C1C2CCC1c1c(NC(=O)c3cn(C)nc3C(F)F)cccc12` (stereo not shown) [isopyrazam]: the “Test L5 Obsd, disease control rating” value is 68% in assay [5] (component (b) 0.016 ppm alone), 89% in assay [5] (component (b) 0.08 ppm alone), 100% in assay [5] (component (b) 0.4 ppm alone) and 100% in [5] (component (b) 2 ppm alone). Besides, the “Test M2 Obsd, disease control rating” value in the assay with Septoria tritici [6] (component (b) 0.08 ppm alone) amounted to 0%; in the assay with Septoria tritici [6] (component (b) 0.4 ppm alone), 77%; in the assay with Septoria tritici [6] (component (b) 2 ppm alone), 93%; with Septoria tritici [6] (component (b) 10 ppm alone), 100%. For the same molecule, the “Test K3 Obsd” value in [7] (component (b) 0.08 ppm alone) is given as 0%; in [7] (component (b) 0.4 ppm alone), 50%; in assay [7] (component (b) 2 ppm alone), 99%; in assay [7] (component (b) 10 ppm alone), 99%.

Regarding `CC(C)CC(C)c1sccc1NC(=O)c1cn(C)nc1C(F)(F)F` (stereo not shown) [penthiopyrad], the “Test L5 Obsd, disease control rating” value in assay [5] (component (b) 0.016 ppm alone) worked out at 9%; in [5] (component (b) 0.08 ppm alone) it was 55%; in assay [5] (component (b) 0.4 ppm alone) it was 68%; in assay [5] (component (b) 2 ppm alone), 99%. The “Test M2 Obsd, disease control rating” value in the assay with Septoria tritici [6] (component (b) 0.08 ppm alone) and in the assay on Septoria tritici [6] (component (b) 0.4 ppm alone) was 0% in each case. In addition, the “Test K3 Obsd” value in assay [7] (component (b) 0.08 ppm alone) is listed as 0%; in assay [7] (component (b) 0.4 ppm alone), 0%; in assay [7] (component (b) 2 ppm alone), 99%; in [7] (component (b) 10 ppm alone), 100%.

Consider `C=CCOC1=NS(=O)(=O)c2ccccc21` [probenazole], for which the “Test L1 Obsd” value is recorded as 9% in [5] (component (b) 10 ppm alone), 18% in [5] (component (b) 40 ppm alone) and 18% in assay [5] (component (b) 200 ppm alone). Moreover, the “Test M1 Obsd, disease control rating” value with Septoria tritici [6] (component (b) 10 ppm alone), in the assay on Septoria tritici [6] (component (b) 40 ppm alone) and with Septoria tritici [6] (component (b) 200 ppm alone) was 0% in each case. Besides, the entries for the “Test K1 Obsd” value in assay [7] (component (b) 10 ppm alone), in [7] (component (b) 40 ppm alone) and in assay [7] (component (b) 200 ppm alone) were 68%, 21% and 71%, respectively.

`Fc1ccc(Oc2ccnc3cc(Cl)cc(Cl)c23)cc1` [quinoxyfen]: the “Test L1 Obsd” value in assay [5] (component (b) 10 ppm alone), in assay [5] (component (b) 40 ppm alone) and in assay [5] (component (b) 200 ppm alone) was 0% each time. The results for the “Test M5 Obsd disease control rating” value in the assay on Septoria tritici [6] (component (b) alone 10 ppm), in the assay on Septoria tritici [6] (component (b) alone 40 ppm) and with Septoria tritici [6] (component (b) alone 200 ppm) were 0%, 0% and 8%, respectively. Further, the “Test K5 Obsd, disease control rating” value in [7] (component (b) 0.016 ppm alone) was 21%; in [7] (component (b) 0.08 ppm alone), 29%; in assay [7] (component (b) 0.4 ppm alone), 64%; in [7] (component (b) 2 ppm alone), 93%.
